ChEMBL document CHEMBL1201862, “PubChem BioAssay data set” (2004)
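In this assay, cells in 96-well plates receive the compound at five concentrations for 48 hours. Endpoints are linearly interpolated between the surrounding concentrations. GI50 marks 50% less growth.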 Activity calls are given as the source filed them. Rule as the data show it: active = GI50 up to about 1.1 µM and inactive = higher.

Experiments:
Test in all cases: NCI-60 cell line screen, 48 h
[1] = tested on: MDA-N
[2] = tested on: OVCAR-4
[3] = tested on: SK-MEL-2
[4] = tested on: RPMI-8226
[5] = tested on: UACC-257
[6] = tested on: HCT-15
[7] = tested on: COLO 205
[8] = tested on: SW-620
[9] = tested on: HCT-116
[10] = tested on: A549
[11] = tested on: SF-268
[12] = tested on: TK-10
[13] = tested on: NCI-H226
[14] = tested on: HOP-92
[15] = tested on: SK-MEL-5
[16] = tested on: NCI/ADR-RES
[17] = tested on: PC-3
[18] = tested on: T47D
[19] = tested on: MDA-MB-231
[20] = tested on: LOX IMVI
[21] = tested on: EKVX
[22] = tested on: OVCAR-8
[23] = tested on: SK-OV-3
[24] = tested on: ACHN
[25] = tested on: HCC 2998
[26] = tested on: A498
[27] = tested on: U-251
[28] = tested on: CAKI-1
[29] = tested on: MOLT-4
[30] = tested on: SR
[31] = tested on: MDA-MB-435
[32] = tested on: UO-31
[33] = tested on: SK-MEL-28
[34] = tested on: RXF 393
[35] = tested on: HL-60
[36] = tested on: SF-295
[37] = tested on: MCF7
[38] = tested on: UACC-62
[39] = tested on: HOP-62
[40] = tested on: BT-549
[41] = tested on: OVCAR-3
[42] = tested on: OVCAR-5
[43] = tested on: K562
[44] = tested on: HT-29
[45] = tested on: NCI-H522
[46] = tested on: 786-0
[47] = tested on: IGROV-1
[48] = tested on: DU-145
[49] = tested on: KM12
[50] = tested on: Malme-3M
[51] = tested on: SNB-19
[52] = tested on: SN12C
[53] = tested on: M14
[54] = tested on: NCI-H23
[55] = tested on: CCRF-CEM
[56] = tested on: SNB-75
[57] = tested on: SF-539

`Oc1ccc2c3c1OC1c4[nH]c5c(c4CC4(O)C(C2)N(CC2CC2)CC[C@]314)CC1(O)C2Cc3ccc(O)c4c3[C@@]1(CCN2CC1CC1)C5O4` (stereo partly specified) was tested, and the GI50 [1] was 18.4 µM (inactive), the GI50 [2] was 29.8 µM (inactive) and the GI50 [3] was 24.2 µM (inactive). For the same molecule, the GI50 [4] was 25.2 µM (inactive), the GI50 [5] was 20.3 µM (inactive) and the GI50 [6] was over 100 µM. The GI50 [7] was 18.1 µM (inactive), the GI50 [8] was 21.9 µM (inactive) and the GI50 [9] was 17.5 µM (inactive). The GI50 [10] was 18.6 µM (inactive), the GI50 [11] was 19.8 µM (inactive) and the GI50 [12] was 21.2 µM (inactive). The GI50 [13] was 27.8 µM (inactive), the GI50 [14] was 23 µM (inactive) and the GI50 [15] was 44 µM (inactive). The GI50 [16] was > 100 µM (inactive), the GI50 [17] was 43.5 µM (inactive) and the GI50 [18] was 18.6 µM (inactive). For the same molecule, the GI50 [19] was 24.4 µM (inactive), the GI50 [20] was 27 µM (inactive) and the GI50 [21] was 35.6 µM (inactive). The GI50 [22] was 51.9 µM (inactive), the GI50 [23] was 43 µM (inactive) and the GI50 [24] was > 100 µM (inactive). The GI50 [25] was 18.7 µM (inactive), the GI50 [26] was 17.5 µM (inactive) and the GI50 [27] was 19.9 µM (inactive). For the same molecule, the GI50 [28] was > 100 µM (inactive), the GI50 [29] was 22.4 µM (inactive) and the GI50 [30] was 27.4 µM (inactive). For the same molecule, the GI50 [31] was 19.9 µM (inactive), the GI50 [32] was > 100 µM (inactive) and the GI50 [33] was 20.1 µM (inactive). The GI50 [34] was 18.1 µM (inactive), the GI50 [35] was 21.9 µM (inactive) and the GI50 [36] was 19.6 µM (inactive). For the same molecule, the GI50 [37] was 34.7 µM (inactive), the GI50 [38] was 20.4 µM (inactive) and the GI50 [39] was 77.3 µM (inactive). For the same molecule, the GI50 [40] was > 100 µM (inactive), the GI50 [41] was 17.6 µM (inactive) and the GI50 [42] was 28 µM (inactive). For the same molecule, the GI50 [43] was 25.4 µM (inactive), the GI50 [44] was 20 µM (inactive) and the GI50 [45] was 19.3 µM (inactive). The GI50 [46] was 21.3 µM (inactive), the GI50 [47] was > 100 µM (inactive) and the GI50 [48] was 37.2 µM (inactive). The GI50 [49] was 17.5 µM (inactive), the GI50 [50] was 17 µM (inactive) and the GI50 [51] was 24.3 µM (inactive). For the same molecule, the GI50 [52] was 35 µM (inactive), the GI50 [53] was 17.5 µM (inactive) and the GI50 [54] was > 100 µM (inactive).

With `Cc1c2c(c(O)c3c(O)cccc13)C(=O)C1(O)C(=O)C(C(=O)NCNc3ccc(C(N)=O)cn3)=C(O)C(N(C)C)C1C2` (stereo unspecified) the GI50 [55] was 2.94 µM (inactive), the GI50 [1] was 4.49 µM (inactive) and the GI50 [2] was 1.93 µM (inactive). For the same molecule, the GI50 [3] was 6.95 µM (inactive), the GI50 [4] was 1.83 µM (inactive) and the GI50 [5] was 3.66 µM (inactive). For the same molecule, the GI50 [6] was 2.8 µM, the GI50 [7] was 6.28 µM (inactive) and the GI50 [8] was 3.52 µM (inactive). The GI50 [9] was 4.06 µM (inactive), the GI50 [10] was 2.96 µM (inactive) and the GI50 [11] was 3.61 µM (inactive). The GI50 [12] was 5.15 µM (inactive), the GI50 [13] was 2.94 µM (inactive) and the GI50 [14] was 2.01 µM (inactive). For the same molecule, the GI50 [15] was 2.16 µM (inactive), the GI50 [16] was 5.5 µM (inactive) and the GI50 [17] was 3.68 µM (inactive). The GI50 [56] was 2.84 µM (inactive), the GI50 [18] was 5.61 µM (inactive) and the GI50 [19] was 3.78 µM (inactive). The GI50 [20] was 4.78 µM (inactive), the GI50 [21] was 4.33 µM (inactive) and the GI50 [22] was 3.21 µM (inactive). For the same molecule, the GI50 [23] was 3.1 µM (inactive), the GI50 [25] was 3.07 µM (inactive) and the GI50 [26] was 2.51 µM (inactive). For the same molecule, the GI50 [27] was 2.6 µM (inactive), the GI50 [28] was 5.36 µM (inactive) and the GI50 [29] was 2.74 µM (inactive). For the same molecule, the GI50 [30] was 3.05 µM (inactive), the GI50 [31] was 3.69 µM (inactive) and the GI50 [33] was 3.53 µM (inactive). The GI50 [34] was 2.89 µM (inactive), the GI50 [36] was 2.87 µM (inactive) and the GI50 [37] was 9.27 µM (inactive). The GI50 [38] was 3.39 µM (inactive), the GI50 [39] was 6 µM (inactive) and the GI50 [57] was 2.52 µM (inactive). For the same molecule, the GI50 [40] was 3.48 µM (inactive), the GI50 [41] was 2.49 µM (inactive) and the GI50 [42] was 5.02 µM (inactive). For the same molecule, the GI50 [43] was 2.4 µM (inactive), the GI50 [44] was 3.89 µM (inactive) and the GI50 [46] was 5.52 µM (inactive). For the same molecule, the GI50 [47] was 1.82 µM (inactive), the GI50 [48] was 4.39 µM (inactive) and the GI50 [49] was 3.53 µM (inactive). For the same molecule, the GI50 [50] was 3.28 µM (inactive), the GI50 [52] was 4.78 µM (inactive) and the GI50 [53] was 3.63 µM (inactive). The GI50 [54] was 7.74 µM (inactive).
